How the values were obtained:
[1] = Solubility in Simulated Gastric Fluid (SGF) at 37° C.; format: physicochemical; conditions: for Resulting Solid: XRPD; for Solubility: calculated using free base content
Experimental: To study if Form A and Form B would perform differently in stomach, the solubilities of Form A and Form B were measured in Simulated Gastric Fluid (SGF, see below for SGF preparation) at 37° C. […] The remaining solids after each time point were subject to XRPD analysis. […] Weigh appropriate amount of hydrochloride (HCl) and sodium chloride (NaCl) into a 1-L flask followed by addition of 1-L deionized water. The mixture was stirred until all solids are dissolved. Check pH value with a pH-meter and adjust the pH to 1.8 with HCl (1N) or NaOH (1N).

[2] = Dynamic vapor sorption (DVS) hygroscopicity; format: physicochemical; conditions: at 80% RH, 25° C.
Experimental: (peak temperature) which is accompanied by 5.9 wt % weight loss up to ˜150° C. in the TGA curve (FIG. 3). […] A solid is considered moderately hygroscopic when water uptake at 25° C./80% RH is between 2-15 wt % based on criteria of European Pharmacopeia. […] Form B of EP-1 trihydrate (x is 3) is a trihydrate as confirmed by single crystal analysis. The experimental XRPD pattern of Form B matches well with the simulated one from single crystal data (FIG. 6). This was also confirmed by DSC and TGA data (FIG. 7 and FIG. 8, respectively). DSC data indicates Form B dehydrates at ˜132° C. […] Form B is slightly hygroscopic as evidenced by a weight change of ˜0.3% between 0% and 95% RH (FIG. 9), (data collection was programmed from 95% RH-0% RH-95% RH at a step size of 10% RH at 25° C.).

Q: Which results are given for `CC(C)N(CC1O[C@@H](n2cnc3c(N)ncnc32)[C@H](O)[C@@H]1O)C1CC(CCc2nc3cc(C(C)(C)C)ccc3[nH]2)C1` (stereo partly drawn) [Form A, (2R,3R,4S,5R)-2-(6-amino-9H-purin-9-yl)-5-((((1r,3S)-3-(2-(5-(tert-butyl)-1H-benzo[d]imidazol-2-yl)ethyl)cyclobutyl)(isopropyl)amino)methyl)tetrahydrofuran-3,4-diol hydrate]?
A: Final pH [1]: 5.1; time of conversion of Form A to Form B in SGF [1]: ≤ 15 min; Resulting Solid ([1]; 15 min): Type B; Solubility ([1]; 15 min): 5400 µg/mL; Resulting Solid ([1]; 30 min): Type B; Solubility ([1]; 30 min): 5500 µg/mL; Resulting Solid ([1]; 60 min): Type B; Solubility ([1]; 60 min): 5300 µg/mL; water adsorption measured by dynamic vapor sorption (DVS) [2]: ~5.8 wt %
